Experimental data as given in ChEMBL document CHEMBL1123894, “Structure-activity relationships of cyclic opioid peptide analogues containing a phenylalanine residue in the 3-position” (J Med Chem, 1987).
Bridge positions count the residues as written; N and C are the ends. Square brackets hold non-standard residues; d marks the D form. Peptide text beside a SMILES is read from it. Orn = NCCC[C@H](N)C(=O)O

Tests used:
[1] = biological target: Delta-type opioid receptor (Rattus norvegicus, UniProt P33533); test: Inhibition of [3H]DSLET binding to rat brain membrane Opioid receptor delta 1
[2] = biological target: Delta-type opioid receptor (Mus musculus, UniProt P32300); test: Inhibitory activity towards electrically induced contractions in mouse vas deferens expressing delta opioid receptor; format: functional, tissue-based
Mu-type opioid receptor [3] = biological target: T1, Mu-type opioid receptor (Rattus norvegicus, UniProt P33535); test: Binding affinity towards Opioid receptor mu 1 in rat brain membrane using [3H]DAGO as radioligand; format: cell membranes
Mu-type opioid receptor [4] = biological target: T2, Mu-type opioid receptor (Cavia porcellus, UniProt P97266); test: Inhibitory activity towards electrically induced contractions in guinea pig ileum expressing Opioid receptor mu 1; format: tissue-based
Mu-type opioid receptor [5] = biological target: T1, Mu-type opioid receptor; test: Binding affinity towards mu Opioid receptor in rat brain membrane using [3H]DAGO as radioligand; format: cell membranes
Mu-type opioid receptor [6] = biological target: T2, Mu-type opioid receptor; test: Inhibitory activity towards electrically induced contractions in guinea pig ileum expressing mu opioid receptor; format: tissue-based
Mu-type opioid receptor [7] = biological target: T2, Mu-type opioid receptor; test: Inhibitory activity towards Opioid receptor mu 1 using guinea pig ileum (GPI) assay was determined for the compound; format: tissue-based

T1 sequence (P33535 whole entry): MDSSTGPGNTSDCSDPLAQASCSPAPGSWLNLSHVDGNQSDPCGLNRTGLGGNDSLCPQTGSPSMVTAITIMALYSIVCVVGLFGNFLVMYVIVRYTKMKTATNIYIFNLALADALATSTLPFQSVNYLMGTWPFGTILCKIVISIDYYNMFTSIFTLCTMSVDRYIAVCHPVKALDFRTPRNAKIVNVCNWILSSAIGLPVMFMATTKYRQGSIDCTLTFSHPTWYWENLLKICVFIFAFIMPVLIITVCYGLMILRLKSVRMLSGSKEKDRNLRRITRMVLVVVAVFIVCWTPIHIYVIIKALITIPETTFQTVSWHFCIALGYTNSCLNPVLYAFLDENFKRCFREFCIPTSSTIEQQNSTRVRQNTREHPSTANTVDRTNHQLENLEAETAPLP
T2 sequence (P97266 whole entry): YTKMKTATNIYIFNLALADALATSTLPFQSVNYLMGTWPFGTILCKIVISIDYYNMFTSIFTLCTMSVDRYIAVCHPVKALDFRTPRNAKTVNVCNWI
Sequence of Delta-type opioid receptor (Mus musculus, UniProt P32300) (P32300 whole entry): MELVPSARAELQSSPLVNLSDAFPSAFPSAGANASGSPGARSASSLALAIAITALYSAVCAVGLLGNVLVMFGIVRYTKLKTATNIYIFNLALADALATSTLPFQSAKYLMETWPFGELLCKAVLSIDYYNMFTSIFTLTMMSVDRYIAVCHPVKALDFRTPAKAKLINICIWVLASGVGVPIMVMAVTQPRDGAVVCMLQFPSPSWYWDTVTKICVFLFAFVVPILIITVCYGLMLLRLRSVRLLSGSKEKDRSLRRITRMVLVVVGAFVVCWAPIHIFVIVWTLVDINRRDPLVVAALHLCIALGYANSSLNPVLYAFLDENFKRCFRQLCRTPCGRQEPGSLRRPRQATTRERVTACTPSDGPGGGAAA
Sequence of Delta-type opioid receptor (Rattus norvegicus, UniProt P33533) (P33533 whole entry): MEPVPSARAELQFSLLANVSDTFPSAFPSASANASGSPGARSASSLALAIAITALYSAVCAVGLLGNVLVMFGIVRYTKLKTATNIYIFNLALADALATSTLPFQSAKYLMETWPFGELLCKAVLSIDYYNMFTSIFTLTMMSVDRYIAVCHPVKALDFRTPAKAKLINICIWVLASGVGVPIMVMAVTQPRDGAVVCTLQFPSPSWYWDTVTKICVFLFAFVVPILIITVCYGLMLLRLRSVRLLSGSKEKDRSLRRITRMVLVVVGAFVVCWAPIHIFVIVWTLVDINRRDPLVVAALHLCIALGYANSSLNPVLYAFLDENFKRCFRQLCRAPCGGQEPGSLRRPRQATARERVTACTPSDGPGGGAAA

| SMILES | Ki [1] [nM] | IC50 [2] [µM] | Ki (Mu-type opioid receptor [3]) [nM] | IC50 (Mu-type opioid receptor [4]) [nM] | Ki (Mu-type opioid receptor [5]) [nM] | IC50 (Mu-type opioid receptor [6]) [nM] | IC50 (Mu-type opioid receptor [7]) [nM] |
| --- | --- | --- | --- | --- | --- | --- | --- |
| NC(=O)[C@@H]1CCCNC(=O)C[C@@H](NC(=O)[C@@H](N)Cc2ccc(O)cc2)C(=O)N[C@@H](Cc2ccccc2)C(=O)N1 (H-Y[dD]F[Orn]-NH2; lactam 2-4) | 1320 | 8.57 | 9.55 | 522 | – | – | – |
| NC(=O)[C@@H]1CC(=O)NCCC[C@H](NC(=O)[C@@H](N)Cc2ccc(O)cc2)C(=O)N[C@@H](Cc2ccccc2)C(=O)N1 | > 60000 | > 100 | – | 16800 | 4830 | – | – |
| NC(=O)[C@@H]1CC(=O)NCCC[C@@H](NC(=O)[C@@H](N)Cc2ccc(O)cc2)C(=O)N[C@@H](Cc2ccccc2)C(=O)N1 | 2220 | 3.88 | 10.4 | – | – | 36.2 | – |
| NC(=O)[C@H]1CC(=O)NCCC[C@@H](NC(=O)[C@@H](N)Cc2ccc(O)cc2)C(=O)N[C@@H](Cc2ccccc2)C(=O)N1 | 422 | 4.81 | 21.7 | 632 | – | – | – |
| NC(=O)[C@@H]1CCNC(=O)C[C@@H](NC(=O)[C@@H](N)Cc2ccc(O)cc2)C(=O)N[C@@H](Cc2ccccc2)C(=O)N1 | 4170 | 2.03 | 24.8 | 279 | – | – | – |
| NC(=O)[C@@H]1CC(=O)NCCC[C@@H](NC(=O)[C@@H](N)Cc2ccc(O)cc2)C(=O)N[C@@H](CCc2ccccc2)C(=O)N1 | 849 | 1.37 | 11.9 | 111 | – | – | – |
| CN1C(=O)[C@H](NC(=O)[C@@H](N)Cc2ccc(O)cc2)CCCNC(=O)C[C@@H](C(N)=O)NC(=O)[C@@H]1Cc1ccccc1 | 28100 | 1.38 | 3570 | 6460 | – | – | – |
| NC(=O)[C@@H]1CSSC[C@@H](NC(=O)[C@@H](N)Cc2ccc(O)cc2)C(=O)N[C@@H](Cc2ccccc2)C(=O)N1 | 373 | – | 11 | – | – | – | 64.7 |
| NC(=O)[C@@H]1CC(=O)NCCC[C@@H](NC(=O)[C@@H](N)Cc2ccc(O)cc2)C(=O)N[C@@H](Cc2ccc([N+](=O)[O-])cc2)C(=O)N1 | 5060 | > 100 | 273 | 2340 | – | – | – |
| NC(=O)[C@@H]1CC(=O)NCCC[C@@H](NC(=O)[C@@H](N)Cc2ccc(O)cc2)C(=O)N[C@@H](C2CCCCC2)C(=O)N1 | 3570 | 1.66 | – | 18400 | 445 | – | – |
| NC(=O)[C@@H]1CC(=O)NCCC[C@@H](NC(=O)[C@@H](N)Cc2ccc(O)cc2)C(=O)N[C@H](Cc2ccccc2)C(=O)N1 | > 380000 | > 8.64 | 3040 | > 21000 | – | – | – |
